Tests used:
Type in all cases: cell-based, human
MCF-10A cells = assay: MTT cytotoxicity assay, MCF-10A control cells; settings: Homo sapiens, 72 h
Description: (§1) All tested compounds were dissolved in DMSO at 25 mM initial concentration and diluted with medium to obtain the working concentrations (0.01 nM–250 µM). Serial drug dilutions were prepared in medium immediately before each experiment. The DMSO working concentration in the medium was […]. For the MTT assay, cells were seeded into 96-well microtitre plates at a density of 1 × 10^4 in 100 µL complete medium per well. They were further incubated for 24 h, followed by treatment with CA-4 analogs up to 72 h. Cell viability was determined using the MTT assay. Ten µL of MTT solution (5 mg/mL) was added to each well and further incubated for 3 h at 37 °C. To dissolve the formazan product, 100 µL/well of 99.5% isopropanol was added. Cell viability was determined by measuring absorbance at 550/630 nm using a DTX880 plate reader (Beckman Coulter, USA). Results, expressed as concentrations that inhibit 20% (IC20), 50% (IC50), and 80% (IC80) of cell growth, were calculated using GraphPad Prism 8.0.1.
(§2) Table S 3.1. Description of eukaryotic cell lines used for MTT assay.
(§3) Panel Cell line Origin Tissue, characteristics Source Culture conditions […]
(§4) (h) lung carcinoma ATCC, CCL-185 U/mL penicillin, 100 […]
(§5) lung, bronchus; insulin, rhEGF, GA-BEAS-2B h epithelial virus ATCC, CRL- 1000, BPE, transformed 9609 transferrin,
(§6) HT-29 h colon, colorectal Radostina adenocarcinoma Alexandrova 3.1 g/L D-Glucose […]

EA.hy926 cells = assay: Cell cycle analysis (propidium iodide, flow cytometry); settings: 300 nM 26Z or 10 nM CA-4
Description: A total of 5 × 10^5 cells was treated with 26Z and CA-4 for time-response assays. Cells were collected by scraping, pelleted, washed with cold PBS (1×), and fixed overnight at 4 °C with 1 mL of ice-cold methanol–acetone (1:1), added dropwise to the pellet while vortexing. Pellets were resuspended and washed in 500 μL of PBS (1×), then permeabilized with a Triton X-100 (0.05–0.1%)/DNA extraction buffer (0.2 M Na2HPO4, 0.04 M citric acid, pH 7.8) in a 1:1 ratio for 15 min. After that, pelleted cells were treated with RNAse A (20 μg/mL) and labeled with 10 μg/mL of propidium iodide (Sigma-Aldrich) by incubation at 37 °C for at least 30 min, protected from light. DNA content was measured using a FACS Calibur flow cytometer ([…], NJ, USA), and cell cycle analysis was performed with FlowJo software (version 8.7). At least 10,000 events were recorded for each sample measured in duplicate.

[1] = MTT cytotoxicity assay, MCF-10A control cells; settings: human, read-out: Cytostatic activity (% viable cells)
Description: as §1, §2, §3, §4, §5, §6

COc1ccc(/C=C\c2cc(OC)c(OC)c(OC)c2)cc1O [CA-4, Combretastatin A-4]
IC50 (MCF-10A cells): 1640 ± 340 nM

COc1cc(/C=C\c2ccc3c(c2)sc(=O)n3C)cc(OC)c1OC [Compound 26Z, (Z)-3-methyl-6-(3,4,5-trimethoxystyryl)-2(3H)-benzothiazolone]
cells in G2/M (EA.hy926 cells; EA.hy926, 4 h): ~ 35% | cells in G2/M (EA.hy926 cells; EA.hy926, 24 h): ~ 78% | viability at 72 h [1]: 65%

Source: PMC8703450, “New Heterocyclic Combretastatin A-4 Analogs: Synthesis and Biological Activity of Styryl-2(3H)-benzothiazolones” (Pharmaceuticals, 2021)
